Results taken from patent US20240408222A1, “COMPOUNDS, PHARMACEUTICAL COMPOSITIONS, AND METHODS FOR THE TREATMENT, PREVENTION, OR MANAGEMENT OF HYPERPRO[…]” (VINCERX PHARMA GMBH, priority 2021, published 2024).
pIC50: −log10 of the molar value.

Legend:
786-O [1] = experiment: Cytotoxicity in vitro (MTT) in presence/absence of elastase; type: cell-based, human; conditions: 72 h
Experimental: (§1) Cultivation of cells was performed according to standard procedures with the media recommended by the provider. The cells, in a total volume of 100 μL, were seeded in a 96-well plate with a white bottom (#3610). After a 24 h incubation period at 37° C. and […], the medium was exchanged by adding 90 μL fresh medium. The treatment started by adding the test compound in 10 μL of culture medium to the cells in triplicates. Concentrations ranging from 10^−5 M to 10^−13 M were chosen. Two identically treated sets of samples were prepared. One set was treated with the test compound alone, whereas to the second set the compound and 10 nM elastase was added followed by a 72 h incubation period at 37° C. and […]. The proliferation was detected using the MTT assay (ATCC). At the end of the incubation period the MTT reagent was added to all samples for 4 h. Lysis of the cells followed by addition of the detergent was done overnight. The formed dye was detected at 570 nm. The proliferation of untreated but otherwise identically handled cells was define as the 100% value.

HT29 [2] = experiment: as above; type: cell-based, human; conditions: 72 h
Experimental: as §1

NCI H292 [3] = experiment: as above; type: cell-based, human; conditions: 72 h
Experimental: as §1

SUM149 [4] = experiment: as above; type: cell-based; conditions: 72 h
Experimental: as §1

786-O [5] = experiment: Cytotoxicity assay (Version 2, automated, AC50) with/without neutrophil elastase; type: cell-based, human; conditions: Version 2, activity concentration at −50%
Experimental: as §1
(§2) The cytotoxicity assay (Version 2) was performed as described above. Some changes were applied as the assays were performed in an automated fashion and the IC50 values determination was changed. Here the change in metabolic activity of the cells, in percent, was calculated by normalization of the measured values to the absorbance values of medium containing wells without cells (═−100%) and the absorbance of the DMSO-treated cells (═0%). AC50 values (activity concentration at −50%) were determined by means of a 4 parameter Hill-fit using GeneData Screener software.

HT29 [6] = experiment: as above; type: cell-based, human; conditions: Version 2, activity concentration at −50%
Experimental: as §1, §2

NCI H292 [7] = experiment: as above; type: cell-based, human; conditions: Version 2, activity concentration at −50%
Experimental: as §1, §2

SUM149 [8] = experiment: as above; type: cell-based; conditions: Version 2, activity concentration at −50%
Experimental: as §1, §2

in vivo = conditions: male, rat, plasma, iv, 0.5 mg/kg
Experimental: Male rats (n=3) were given an intravenous 0.5 or 2.0 mg/kg bolus dose of test article dissolved in plasma with 1% DMSO and 2% ethanol (C30 only). Serial blood samples were collected up to 24 hours post-dose. Plasma was harvested from blood samples and stored frozen until sample analysis. Test article plasma concentrations were analyzed by LC/MS/MS.

[9] = with (+) 10 nM neutrophil elastase
[10] = without (−) neutrophil elastase
[11] = HT29, with (+) 10 nM neutrophil elastase
[12] = HT29, without (−) neutrophil elastase
[13] = NCI H292, with (+) 10 nM neutrophil elastase
[14] = NCI H292, without (−) neutrophil elastase
[15] = SUM149, with (+) 10 nM neutrophil elastase
[16] = SUM149, without (−) neutrophil elastase
[17] = HT29, with (+) neutrophil elastase
[18] = NCI H292, with (+) neutrophil elastase
[19] = SUM149, with (+) neutrophil elastase

Structure (SMILES) | pIC50 (786-O [1]; [9]) | pIC50 (786-O [1]; [10]) | pIC50 (HT29 [2]; [11]) | pIC50 (HT29 [2]; [12]) | pIC50 (NCI H292 [3]; [13]) | pIC50 (NCI H292 [3]; [14]) | pIC50 (SUM149 [4]; [15]) | pIC50 (SUM149 [4]; [16]) | AC50 (786-O [5]; with (+) neutrophil elastase) | AC50 (786-O [5]; [10]) | AC50 (HT29 [6]; [17]) | AC50 (HT29 [6]; [12]) | AC50 (NCI H292 [7]; [18]) | AC50 (NCI H292 [7]; [14]) | AC50 (SUM149 [8]; [19]) | AC50 (SUM149 [8]; [16]) | AUC (in vivo) | Vd (in vivo) | clearance (in vivo) | half-life (in vivo)
CCCNC(=O)Nc1cccc(S(=O)(=O)Nc2cccc([C@H](CC(=O)O)NC(=O)Nc3ccc(NC(=O)NCCN(C)CCN(C)CCN(C)CC(=O)N[C@@H](CC(N)=O)C(=O)N4CCC[C@H]4C(=O)N[C@H](C(=O)N=[S@@](C)(=O)Cc4cc5cc(c4)OCCCCCNc4cc(ccc4F)-c4nc(ncc4F)N5)C(C)C)cc3)c2)c1 (relative stereo) [Compound 16] | 8.00 to 8.96 | < 7.00 | ≥ 9.00 | < 7.00 | ≥ 9.00 | 7.00 to 7.96 | 8.00 to 8.96 | 7.00 to 7.96 | 11 to 100 nM | > 1000 nM | ≤ 10 nM | > 1000 nM | 11 to 100 nM | 100 to 1000 nM | 11 to 100 nM | > 1000 nM |  |  |  | 
CCCNC(=O)Nc1cccc(S(=O)(=O)Nc2cccc([C@@H](CC(=O)O)NC(=O)Nc3ccc(NC(=O)NCCN(C)CCN(C)CCN(C)CC(=O)N[C@@H](CC(N)=O)C(=O)N4CCC[C@H]4C(=O)N[C@H](C(=O)N=[S@](C)(=O)Cc4cc5cc(c4)OCCCCCNc4cc(ccc4F)-c4nc(ncc4F)N5)C(C)C)cc3)c2)c1 (relative stereo) [Compound 17] | 8.00 to 8.96 | < 7.00 | ≥ 9.00 | 7.00 to 7.96 | ≥ 9.00 | 7.00 to 7.96 | 8.00 to 8.96 | 7.00 to 7.96 | ≤ 10 nM | 100 to 1000 nM | ≤ 10 nM | > 1000 nM | ≤ 10 nM | 100 to 1000 nM | ≤ 10 nM | 100 to 1000 nM |  |  |  | 
CCCNC(=O)Nc1cccc(S(=O)(=O)Nc2cccc([C@@H](CC(=O)O)NC(=O)Nc3ccc(NC(=O)NCCOCCOCCOCCC(=O)NCCCC[C@H](NC(=O)CCOCCOCCOCCNC(=O)Nc4ccc(NC(=O)N[C@H](CC(=O)O)c5cccc(NS(=O)(=O)c6cccc(NC(=O)NCCC)c6)c5)cc4)C(=O)NCCOCCOCCOCCC(=O)N[C@@H](CC(=O)O)C(=O)N4CCC[C@H]4C(=O)N[C@H](C(=O)N=S(C)(=O)Cc4cc5cc(c4)OC(C)CCOc4cc(F)ccc4-c4nc(ncc4F)N5)C(C)C)cc3)c2)c1 (relative stereo) [Compound 30] |  |  |  |  |  |  |  |  |  |  |  |  |  |  |  |  | 50000 to 150000 ng·h/mL | > 0.1 L/kg | 0.05 to 0.5 mL/min/kg | 10 to 20 h
CCCNC(=O)Nc1cccc(S(=O)(=O)Nc2cccc([C@@H](CC(=O)O)NC(=O)Nc3ccc(NC(=O)N(C)CCN(C)CCN(C)CC(=O)N[C@@H](CC(N)=O)C(=O)N4CCC[C@H]4C(=O)N[C@H](C(=O)N=[S@@](C)(=O)Cc4ccnc(Nc5cc(-c6ccc(F)cc6OC)c(F)cn5)c4)C(C)C)cc3)c2)c1 [Compound 4, N-{2-[{2-[({4-[({(1R)-2-Carboxy-1-[3-({3-[(propylcarbamoyl)amino]benzene-1-sulfonyl}amino)phenyl]ethyl}carbamoyl)amino]phenyl}carbamoyl)(methyl)amino]ethyl} (methyl)amino]ethyl}-N-methylglycyl-L-asparaginyl-L-prolyl-N—[(S)-[(2-{[5-fluoro-4-(4-fluoro-2-methoxyphenyl)pyridine-2-yl]amino}pyridin-4-yl)methyl](methyl)oxo-lambda^6-sulfanylidene]-L-valinamide] | 7.00 to 7.96 | < 7.00 | 7.00 to 7.96 | < 7.00 | 7.00 to 7.96 | < 7.00 | 7.00 to 7.96 | < 7.00 | 11 to 100 nM | > 1000 nM | 100 to 1000 nM | > 1000 nM | > 1000 nM | > 1000 nM | 100 to 1000 nM | > 1000 nM |  |  |  | 
